From PMC7435673, “Synthesis of α-Aminophosphonic Acid Derivatives Through the Addition of O- and S-Nucleophiles to 2H-Azirines and Their Antiproliferative Effect on A549 Human Lung Adenocarcinoma Cells” (Molecules, 2020) come the findings set out here.

Data set [1] can be described thus: in vitro. The conditions noted are these: human.
Description: (§1) The cytotoxicity of the new α-aminophosphine oxide and phosphonate acetals 4 and 5, β-keto-α-aminophosphonate 6, aziridines 7, 10 and 14, and allylic α-aminophosphine oxides and phosphonates 8, 9, 11, 12, 15 and 16 was investigated in vitro by checking their antiproliferative activities against the human cancer cell line A549 (carcinomic human alveolar basal epithelial cells). […] In order to assess growth inhibition, cell counting kit (CCK-8) assay was employed. […] Likewise, healthy lung cells, such as MRC-5 non-malignant lung fibroblasts were tested to study the selectivity of the cytotoxicity [49].
(§2) All stock solutions of the investigated compounds were prepared by dissolving the powered materials in appropriate amounts of DMSO. The final concentration of DMSO never exceeded 5% (v/v) in reactions. The stock solution was stored at 5 °C until it was used.
(§3) Cells were cultured according to the supplier’s instructions. […] On day 2, compounds were added and samples were incubated for 48 h. […] The absorbance of each well was determined by an Automatic ELISA Reader System (Multiskan FC, Thermo Fisher Scientific, Waltham, MA, USA) at 450 nm wavelength.
The test system of data set [2] is MRC-5 non-malignant lung fibroblasts. The experiment in a line: Cytotoxicity CCK-8 assay, MRC-5 (selectivity). The conditions noted are these: in vitro, CCK-8. For orientation: Formazan colour is commonly taken as a measure of viable cells.
Description: as §1, §2, §3
Data set [3] has as its system Human colon carcinoma cell line (RKO). The experiment in a line: Cytotoxicity (antiproliferative) CCK-8 assay, RKO. The conditions noted are these: Homo sapiens, Colon carcinoma cell, 48 h, read-out: cytotoxicity value against human colon carcinoma cell line (RKO).
Protocol: Human colon carcinoma cell line (RKO) was also used to test the antiproliferative activity of some of our compounds. In order to assess growth inhibition, cell counting kit (CCK-8) assay was employed.
as §2
Cells were cultured according to the supplier’s instructions. Cells were seeded in 96-well plates at a density of 2–4 × 10^3 cells per well and incubated overnight in 0.1 mL of media supplied with 10% Fetal Bovine Serum (Lonza) in 5% CO2 incubator at 37 °C. On day 2, compounds were added and samples were incubated for 48 h. After treatment, 10 μL of cell counting kit-8 was added into each well for additional 2 h incubation at 37 °C. The absorbance of each well was determined by an Automatic ELISA Reader System (Multiskan FC, Thermo Fisher Scientific, Waltham, MA, USA) at 450 nm wavelength.
Data set [4] relates to human cancer cell line A549 (carcinomic human alveolar basal epithelial cells). The experiment in a line: Cytotoxicity (antiproliferative) CCK-8 assay, A549. Particulars: Homo sapiens, A549, 48 h, read-out: Cytotoxicity IC50 Lung A549.
Description: as §1, §2, §3

In the case of `O=P(c1ccccc1)(c1ccccc1)[C@@H]1N[C@]1(Sc1ccccc1)c1ccccc1` (relative stereo) [Compound 14c, Diphenyl [(2S*,3S*)-3-phenyl-3-(phenylthio)aziridin-2-yl]phosphine oxide], the IC50 at 48 h in data set [1] was 4.9 ± 0.49 µM. In addition, in data set [2], the “toxicity toward MRC-5 cell line (in words)” value is on record as “good cytotoxicity”. Also, the IC50 was found to be 9.7 µM in data set [3] and 1.1 ± 0.32 µM in data set [4].
